Laboratory results published in patent publication US6410591B1, “3,7 or 3 and 7 thia or oxa prostanoic acid derivatives as agents for lowering intraocular pressure” (Allergan Sales, Inc., priority 2001, dated 2002).

Columns and labels:
intraocular pressure [1] = test: Intraocular pressure in dogs, applanation pneumatonometry; assay type: in vivo; conditions: for reduced the intraocular pressure (IOP) by: 25 μl to the ocular surface, IOP at 6 hours
Method: The compounds were prepared at the said concentrations in a vehicle comprising 0.1% polysorbate 80 and 10 mM TRIS base. Dogs were treated by administering 25 μl to the ocular surface, the contralateral eye received vehicle as a control. Intraocular pressure was measured by applanation pneumatonometry. Dog intraocular pressure was measured immediately before drug administration and at 6 hours thereafter.

intraocular pressure [2] = test: Intraocular pressure in glaucomatous cynomolgus monkeys; assay type: in vivo, glaucomatous cynomonlgus monkey

Structure (SMILES)	reduced the intraocular pressure (IOP) by (intraocular pressure [1]; dose of 0.01% w/v) [%]	reduced the intraocular pressure (IOP) by (intraocular pressure [1]; dose of 0.1% w/v) [%]	ocular hypotensive effect (intraocular pressure [1]; topical ocular, 25 μl)	effect on IOP (intraocular pressure [2]; glaucomatous cynomonlgus monkey, dose of 0.01% w/v)	ocular hypotensive effect (intraocular pressure [2]; glaucomatous cynomonlgus monkeys)
CCCCC[C@H](O)/C=C/[C@H]1[C@H](O)CC(=O)[C@@H]1SCCCSCC(=O)O [Compound 9, {3-[(1R,2S,3R)-3-Hydroxy-2-((S)-(E)-3-hydroxyoct-1-enyl)-5-oxocyclopentyl-sulfanyl]propylsulfanyl}acetic acid]	45	50	pronounced ocular hypotensive effect		
CCCCC[C@H](O)/C=C/[C@H]1[C@H](O)CC(=O)[C@@H]1SCCCSCC(=O)OC(C)C [Compound 10, {3-[(1R,2S,3R)-3-Hydroxy-2-((S)-(E)-3-hydroxyoct-1-enyl)-5-oxocyclopentyl-sulfanyl]propylsulfanyl}acetic acid isopropyl ester]				reduced the IOP	pronounced ocular hypotensive effect
